# Measured values from patent US20240285784A1, “PEPTIDIC CONJUGATES OF SN38 USEFUL IN THE TREATMENT OF CANCER” (FUNDACIÓ INSTITUT DE RECERCA BIOMÈDICA (IRB BARCELONA), priority 2020, published 2024).
# Where two headings read alike, the source gives them in different places. *1 amine or outer side, *2 acyl side, *3 side chain or, on linkers, in order; H or OH if unused. Where a SMILES comes first, the peptide text is derived from it. Bridges are numbered along the chain shown (N, C = ends). [ ]: non-standard residue; d: D form. The star is where a group is joined. X1 = CCc1c2c(nc3ccc(O)cc13)-c1cc3c(c(=O)n1C2)COC(=O)[C@@]3(CC)OC(=O)CCCCn1cc(CCCC(=O)NCCCOCCOCCOCCCN*)nn1; Suc = O=C(CCC(=O)[*:2])[*:1]; Dap = NC[C@H](N)C(=O)O
# Key:
# [1] = test system: retinoblastoma cell model HSJD-RBT-14; experiment: MTS cell viability assay, retinoblastoma model HSJD-RBT-14; assay type: cell-based; conditions: 72 h incubation, Example 9, Table 3, read-out: IC50 values against cancer cell lines
# Text: Cancer cell lines were obtained from the repository maintained at Hospital Sant Joan de Deu (Barcelona, Spain). Cancer cell lines used in these experiment included cancer types of adult glioma (U373 and U87 cell lines), pediatric gliomas including diffuse intrinsic pontine glioma (HSJD-DIPG-007, HSJD-DIPG-011), and pediatric high-grade glioma (HSJD-GBM-001), retinoblastoma (HSJD-RBT-5, HSJD-RBT-7 and HSJD-RBT-14), Ewing sarcoma (A673), rhabdomyosarcoma (Rd and RH4) and neuroblastoma (LAN-1 and SK-N-JD cell lines and HSJD-NB-004, HSJD-NB-005 and HSJD-NB-016 patient-derived cell models). […] To add the drugs to the cells in culture, SN38-linker A-MiniAp4 (Ia) and irinotecan were prepared in culture medium from stock solutions at concentration 1 mg/mL in water. SN38 was prepared in culture medium from a stock solution at concentration 1 mg/mL in DMSO. […] Activity curves were built for adult glioma cell lines U87 (FIG. 1) and U373 (FIG. 2), pediatric gliomas including DIPG models HSJD-DIPG-007 (FIG. 3) and HSJD-DIPG-011 (FIG. 4), and pediatric high-grade glioma model HSJD-GBM-001 (FIG. 5), retinoblastoma models HSJD-RBT-5 (FIG. 6), HSJD-RBT-7 (FIG. 7) and HSJD-RBT-14 (FIG. 8), Ewing sarcoma cell line A673 (FIG. 9), rhabdomyosarcoma cell lines Rd (FIG. 10) and RH4 (FIG. 11), neuroblastoma cell lines LAN-1 (FIG. 12) and SK-N-JD (FIG. 13) and neuroblastoma patient-derived cell models HSJD-NB-004 (FIG. 14), HSJD-NB-005 (FIG. 15) and HSJD-NB-016 (FIG. 16). The established IC50 values are in Table 3.
# [2] = test system: pediatric high-grade glioma HSJD-GBM-001; experiment: cells; assay type: cell-based; conditions: MTS, 72 h incubation
# Text: Cancer cell lines were obtained from the repository maintained at Hospital Sant Joan de Deu (Barcelona, Spain). Cancer cell lines used in these experiment included cancer types of adult glioma (U373 and U87 cell lines), pediatric gliomas including diffuse intrinsic pontine glioma (HSJD-DIPG-007, HSJD-DIPG-011), and pediatric high-grade glioma (HSJD-GBM-001), retinoblastoma (HSJD-RBT-5, HSJD-RBT-7 and HSJD-RBT-14), Ewing sarcoma (A673), rhabdomyosarcoma (Rd and RH4) and neuroblastoma (LAN-1 and SK-N-JD cell lines and HSJD-NB-004, HSJD-NB-005 and HSJD-NB-016 patient-derived cell models). Briefly, between 3000 and 30,000 cancer cells were cultured in 96 well plates and 24 h later the cells were exposed to compound SN38-linker A-MiniAp4 (Ia) (concentration range 1-0.00000001 μM), SN38 (concentration range 1-0.00000001 μM), or irinotecan (concentration range 100-0,000001 μM). To add the drugs to the cells in culture, SN38-linker A-MiniAp4 (Ia) and irinotecan were prepared in culture medium from stock solutions at concentration 1 mg/mL in water. SN38 was prepared in culture medium from a stock solution at concentration 1 mg/mL in DMSO. The tetrazolium compound [3-(4,5-dimethylthiazol-2-yl)-5-(3-carboxymethoxyphenyl)-2-(4-sulfophenyl)-2H-tetrazolium] (MTS assay; Promega, Fitchburg, WI) was used to determine cell viability after 72 h incubation with the drugs. The concentrations of drug required to cause a reduction of 50% in cell proliferation (IC50 and 95% confidence intervals) were calculated with Graphpad Prism 8 software (La Jolla, CA). Activity curves were built for adult glioma cell lines U87 (FIG. 1) and U373 (FIG. 2), pediatric gliomas including DIPG models HSJD-DIPG-007 (FIG. 3) and HSJD-DIPG-011 (FIG. 4), and pediatric high-grade glioma model HSJD-GBM-001 (FIG. 5), retinoblastoma models HSJD-RBT-5 (FIG. 6), HSJD-RBT-7 (FIG. 7) and HSJD-RBT-14 (FIG. 8), Ewing sarcoma cell line A673 (FIG. 9), rhabdomyosarcoma cell lines Rd (FIG. 10) and RH4 (FIG. 11), neuroblastoma cell lines LAN-1 (FIG. 12) and SK-N-JD (FIG. 13) and neuroblastoma patient-derived cell models HSJD-NB-004 (FIG. 14), HSJD-NB-005 (FIG. 15) and HSJD-NB-016 (FIG. 16). The established IC50 values are in Table 3.
# The present inventors compared the activity of the new compound SN38 conjugated with MiniAp4 (SN38-linkerA-MiniAp4, example 7 also named G2B-001) and with SN38-linker B-THRre (comparative example 2). Original compound SN38 was used as reference. Cancer cell lines used in these experiments were pediatric gliomas including diffuse intrinsic pontine glioma HSJD-DIPG-007, and pediatric high-grade glioma HSJD-GBM-001. Briefly, 3000 cancer cells were cultured in 96 well plates and 24 h later the cells were exposed to compound compound (Ia) (concentration range 1-0.00000001 μM), SN38-Linker B-THRre (concentration range 1-0.00000001 μM), and SN38 (concentration range 1-0.00000001 μM). To add the drugs to the cells in culture, SN38-Linker A-MiniAp4 (Ia) and SN38-Linker B-THRre were prepared in culture medium from stock solutions at concentration 1 mg/mL in water. SN38 was prepared in culture medium from a stock solution at concentration 1 mg/mL in DMSO. The MTS assay was used to determine cell viability after 72 h incubation with the drugs. The concentrations of drug required to cause a reduction of 50% in cell proliferation (IC50 and 95% confidence intervals) were calculated with Graphpad Prism 8 software (La Jolla, CA). Activity curves were built for cells HSJD-DIPG-007 (FIG. 20) and HSJD-GBM-001 (FIG. 21). The established IC50 values are in Table 4.
# Cancer cell lines used in these experiments were pediatric gliomas including diffuse intrinsic pontine glioma HSJD-DIPG-007, and pediatric high-grade glioma HSJD-GBM-001. Briefly, 3000 cancer cells were cultured in 96 well plates and 24 h later the cells were exposed to compounds (Ia), comparative example 1 and comparative example 2 (concentration range 1-0.001 μM for each of them). […]
# [3] = Example 9, Table 3, read-out: IC50 values against cancer cell lines
# [4] = Example 11, Table 4, read-out: IC50 values of compounds
SMILES,IC50 [1] [nM],"IC50 [2, 3] [µM]","IC50 [2, 4] [µM]","IC50 ([2]; Example 12, Table 5, read-out: IC50 values (μM) against cancer cell lines) [µM]"
CCc1c2c(nc3ccc(OC(=O)N4CCC(N5CCCCC5)CC4)cc13)-c1cc3c(c(=O)n1C2)COC(=O)[C@]3(O)CC [Irinotecan],2600,9.57,,
"CCc1c2c(nc3ccc(O)cc13)-c1cc3c(c(=O)n1C2)COC(=O)[C@]3(O)CC [SN38, 7-ethyl-10-hydroxy-camptothecin]",1.08,0.00261,0.00631,
CCc1c2c(nc3ccc(O)cc13)-c1cc3c(c(=O)n1C2)COC(=O)[C@@]3(CC)OC(=O)CCCCn1cc(CCCC(=O)NCCCOCCOCCOCCCNC(=O)CCC(=O)N[C@H]2CNC(=O)C[C@@H](C(N)=O)NC(=O)[C@H](CC(C)C)NC(=O)[C@H](C)NC(=O)[C@H]([C@@H](C)O)NC(=O)[C@H](CCC(=O)O)NC(=O)[C@@H]3CCCN3C(=O)[C@H](C)NC(=O)[C@H](CCCCN)NC2=O)nn1 [SN38-linker A-MiniAp4 (Ia)] ({X1-Suc}-[Dap]KAPETALD-NH2; lactam 1-9),33.5,0.0703,0.00639,0.0216
